Source: US20220089575A1, “FARNESOID X RECEPTOR AGONISTS AND USES THEREOF” (Metacrine, Inc., priority 2017, published 2022)

target: T1, hFXR (Homo sapiens, UniProt Q96RI1); assay: In Vitro FXR Assay (TK): TK-ECRE-luc reporter in transfected CV-1 cells; assay type: cell-based; details: 18 hrs, luminescence, maximum efficacy of <25% of the Fexarmine control classified as '+'
T1 construct: expressed in transfected cells; host or cells: CV-1 cells
T1 sequence (Q96RI1 1-486): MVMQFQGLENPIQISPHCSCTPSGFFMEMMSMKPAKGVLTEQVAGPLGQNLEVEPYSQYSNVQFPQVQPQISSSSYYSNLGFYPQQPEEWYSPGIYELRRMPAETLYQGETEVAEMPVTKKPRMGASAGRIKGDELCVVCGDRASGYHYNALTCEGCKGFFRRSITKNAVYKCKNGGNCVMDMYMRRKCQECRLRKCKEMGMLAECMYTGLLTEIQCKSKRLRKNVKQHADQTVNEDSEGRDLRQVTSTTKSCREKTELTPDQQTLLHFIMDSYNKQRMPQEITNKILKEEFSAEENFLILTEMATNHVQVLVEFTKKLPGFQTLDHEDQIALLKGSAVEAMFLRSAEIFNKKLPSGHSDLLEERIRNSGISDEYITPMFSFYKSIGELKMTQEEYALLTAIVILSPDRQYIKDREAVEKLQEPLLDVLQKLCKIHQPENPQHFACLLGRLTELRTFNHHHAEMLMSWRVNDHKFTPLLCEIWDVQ
T1 sequence (P19793 1-462 partner): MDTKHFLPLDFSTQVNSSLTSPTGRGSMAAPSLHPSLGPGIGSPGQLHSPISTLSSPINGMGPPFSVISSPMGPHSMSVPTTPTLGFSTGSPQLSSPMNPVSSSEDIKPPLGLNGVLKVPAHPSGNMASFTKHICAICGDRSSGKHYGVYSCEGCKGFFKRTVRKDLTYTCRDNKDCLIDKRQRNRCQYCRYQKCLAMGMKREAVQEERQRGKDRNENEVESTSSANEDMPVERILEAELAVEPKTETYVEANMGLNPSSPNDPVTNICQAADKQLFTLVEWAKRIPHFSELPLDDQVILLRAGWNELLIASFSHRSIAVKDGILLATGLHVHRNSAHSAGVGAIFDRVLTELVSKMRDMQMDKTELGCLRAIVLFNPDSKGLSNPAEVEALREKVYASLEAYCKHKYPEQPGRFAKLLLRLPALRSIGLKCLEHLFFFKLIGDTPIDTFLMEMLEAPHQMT
Outline: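 CV-1 cells in DMEM with 10% charcoal-stripped FBS were co-transfected with hFXR, hRXR, TK-ECRE-luc reporter and pCMX-YFP plasmids. After 18 h, compounds serially diluted in DMSO were added for a further 18 h, then cells were lysed and luminescence read.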

EC50, ≤ 250 nM:
CNC(=O)OCC(=O)N[C@H]1CC[C@H](C(=O)N(C[C@H]2CC[C@H](c3ccc(OC)c(C)c3)CC2)c2cccc(-c3cnn(C4CC4)c3)c2)CC1 [Compound 26.04, 2-((trans-4-((3-(1-Cyclopropyl-1H-pyrazol-4-yl)phenyl)((trans-4-(4-methoxy-3-methylphenyl)cyclohexyl)methyl)carbamoyl)cyclohexyl)amino)-2-oxoethyl methylcarbamate]
COc1ccc([C@H]2CC[C@H](CN(c3cccc(-c4cnn(C5CC5)c4)c3)C(=O)[C@H]3CC[C@H](NC(=O)OCCO)CC3)CC2)cc1C [Compound 26.05, 2-Hydroxyethyl (trans-4-((3-(1-cyclopropyl-1H-pyrazol-4-yl)phenyl)((trans-4-(4-methoxy-3-methylphenyl)cyclohexyl)methyl)carbamoyl)cyclohexyl)carbamate]
COc1ccc([C@H]2CC[C@H](CN(c3cccc(-c4cnn(C5CC5)c4)c3)C(=O)[C@H]3CC[C@H](NC(=O)[C@H]4CC[C@H](O)CC4)CC3)CC2)cc1C [Compound 26.06, trans-N-(3-(1-Cyclopropyl-1H-pyrazol-4-yl)phenyl)-4-(trans-4-hydroxycyclohexanecarboxamido)-N-((trans-4-(4-methoxy-3-methylphenyl)cyclohexyl)methyl) cyclohexanecarboxamide]
COc1ccc(C23CCC(CN(c4cccc(-c5cnn(C6CC6)c5)c4)C(=O)[C@H]4CC[C@H](NC(C)=O)CC4)(CC2)CC3)cc1C [Compound 26.07, trans-4-Acetamido-N-(3-(1-cyclopropyl-1H-pyrazol-4-yl)phenyl)-N-((4-(4-methoxy-3-methylphenyl)bicyclo[2.2.2]octan-1-yl)methyl)cyclohexanecarboxamide]
COc1ccc(C23CCC(CN(c4cccc(-c5cnn(C6CC6)c5)c4)C(=O)[C@H]4CC[C@H](NC(=O)COC(C)=O)CC4)(CC2)CC3)cc1C [Compound 26.08, 2-((4-((3-(1-Cyclopropyl-1H-pyrazol-4-yl)phenyl)((4-(4-methoxy-3-methylphenyl)bicyclo[2.2.2]octan-1-yl)methyl)carbamoyl)cyclohexyl)amino)-2-oxoethyl trans-acetate]
COc1ccc(C23CCC(CN(c4cccc(-c5cnn(C6CC6)c5)c4)C(=O)[C@H]4CC[C@H](NC(=O)CO)CC4)(CC2)CC3)cc1C [Compound 26.09, trans-N-(3-(1-Cyclopropyl-1H-pyrazol-4-yl)phenyl)-4-(2-hydroxyacetamido)-N-((4-(4-methoxy-3-methylphenyl)bicyclo[2.2.2]octan-1-yl)methyl)cyclohexanecarboxamide]
COc1ccc([C@H]2CC[C@H](CN(c3cccc(-c4cnn(C(C)C)c4)c3)C(=O)[C@H]3CC[C@H](NC(C)=O)CC3)CC2)cc1C [Compound 26.10, trans-4-Acetamido-N-(3-(1-isopropyl-1H-pyrazol-4-yl)phenyl)-N-((trans-4-(4-methoxy-3-methylphenyl)cyclohexyl)methyl) cyclohexanecarboxamide]
COc1ccc([C@H]2CC[C@H](CN(c3cccc(-c4cnn(C(C)C)c4)c3)C(=O)[C@H]3CC[C@H](NC(=O)COC(C)=O)CC3)CC2)cc1C [Compound 26.11, 2-((trans-4-((3-(1-Isopropyl-1H-pyrazol-4-yl)phenyl)((trans-4-(4-methoxy-3-methylphenyl)cyclohexyl)methyl)carbamoyl)cyclohexyl)amino)-2-oxoethyl acetate]
COc1ccc([C@H]2CC[C@H](CN(c3cccc(-c4cnn(C(C)C)c4)c3)C(=O)[C@H]3CC[C@H](NC(=O)CO)CC3)CC2)cc1C [Compound 26.12, trans-4-(2-Hydroxyacetamido)-N-(3-(1-isopropyl-1H-pyrazol-4-yl)phenyl)-N-((trans-4-(4-methoxy-3-methylphenyl)cyclohexyl)methyl) cyclohexanecarboxamide]
COc1ccc([C@H]2CC[C@H](CN(c3cccc(-c4cnn(C5CC5)c4)c3)C(=O)[C@H]3CC[C@H](CNC(C)=O)CC3)CC2)cc1C [Compound 26.13, trans-4-(Acetamidomethyl)-N-(3-(1-cyclopropyl-1H-pyrazol-4-yl)phenyl)-N-((trans-4-(4-methoxy-3-methylphenyl)cyclohexyl)methyl) cyclohexanecarboxamide]
COC(=O)NC[C@H]1CC[C@H](C(=O)N(C[C@H]2CC[C@H](c3ccc(OC)c(C)c3)CC2)c2cccc(-c3cnn(C4CC4)c3)c2)CC1 [Compound 26.14, Methyl ((trans-4-((3-(1-cyclopropyl-1H-pyrazol-4-yl)phenyl)((trans-4-(4-methoxy-3-methylphenyl)cyclohexyl)methyl)carbamoyl)cyclohexyl)methyl)carbamate]
COc1ccc([C@H]2CC[C@H](CN(c3cccc(-c4cnn(C5CC5)c4)c3)C(=O)[C@H]3CC[C@H](CNS(C)(=O)=O)CC3)CC2)cc1C [Compound 26.15, trans-N-(3-(1-Cyclopropyl-1H-pyrazol-4-yl)phenyl)-N-((trans-4-(4-methoxy-3-methylphenyl)cyclohexyl)methyl)-4-(methylsulfonamidomethyl) cyclohexanecarboxamide]
COc1ccc([C@H]2CC[C@H](CN(c3cccc(-c4coc(C5CC5)n4)c3)C(=O)[C@H]3CC[C@H](NC(=O)CO)CC3)CC2)cc1C [Compound 26.16, trans-N-(3-(2-Cyclopropyloxazol-4-yl)phenyl)-4-(2-hydroxyacetamido)-N-((trans-4-(4-methoxy-3-methylphenyl)cyclohexyl)methyl) cyclohexanecarboxamide]
COc1ccc([C@H]2CC[C@H](CN(c3cc(-c4coc(C5CC5)n4)ccn3)C(=O)[C@H]3CC[C@H](NC(=O)COC(C)=O)CC3)CC2)cc1C [Compound 26.17, 2-((trans-4-((4-(2-cyclopropyloxazol-4-yl)pyridine-2-yl)((trans-4-(4-methoxy-3-methylphenyl)cyclohexyl)methyl)carbamoyl)cyclohexyl)amino)-2-oxoethyl acetate]
COc1ccc([C@H]2CC[C@H](CN(c3cc(-c4coc(C5CC5)n4)ccn3)C(=O)[C@H]3CC[C@H](NC(=O)CO)CC3)CC2)cc1C [Compound 26.18, trans-N-(4-(2-Cyclopropyloxazol-4-yl)pyridin-2-yl)-4-(2-hydroxyacetamido)-N-((trans-4-(4-methoxy-3-methylphenyl)cyclohexyl)methyl) cyclohexanecarboxamide]
COc1ccc([C@H]2CC[C@H](CN(c3cccc(-c4coc(C5CC5)n4)c3)C(=O)[C@H]3CC[C@H](NC(C)=O)CC3)CC2)cc1C [Compound 26.19, trans-4-Acetamido-N-(3-(2-cyclopropyloxazol-4-yl)phenyl)-N-((trans-4-(4-methoxy-3-methylphenyl)cyclohexyl)methyl) cyclohexanecarboxamide]
COc1ccc([C@H]2CC[C@H](CN(c3cc(-c4coc(C5CC5)n4)ccn3)C(=O)[C@H]3CC[C@H](NC(C)=O)CC3)CC2)cc1C [Compound 26.20, trans-4-Acetamido-N-(4-(2-cyclopropyloxazol-4-yl)pyridine-2-yl)-N-((trans-4-(4-methoxy-3-methylphenyl)cyclohexyl)methyl) cyclohexanecarboxamide]
